Results from patent publication EP4775208A1, “USE OF PRMT5 INHIBITOR IN TREATMENT OF TUMORS OR CANCERS” (Apeiron Therapeutics (Hong Kong) Ltd., priority 2023, dated 2025).

Tests used:
Assay type in all cases: cell-based
LN18 MTAP(-/-) cells = test: Inhibition of proliferation of LN18 MTAP(-/-) cells (CellTiter-Glo); conditions: Homo sapiens, LN-18, 168 h, cell proliferation, 7 days
Experimental: Test 5: Assay for Inhibitory Activity of Compounds against LN18 MTAP(-/-) Cell Proliferation
(§1) Materials and Cells: The LN18 MTAP(-/-) cell line was provided by Cobioer Biosciences (China). Cell culture media, fetal bovine serum (FBS), and penicillin-streptomycin were purchased from Thermo Fisher Scientific (USA). 384-well plates were purchased from PerkinElmer (USA). The CellTiter-Glo assay kit was purchased from Promega (USA).
Cell Culture: LN18 MTAP(-/-) cells were cultured in a medium supplemented with 10% fetal bovine serum (FBS) and 1% penicillin-streptomycin at 37°C with 5% CO2. Only cells in the logarithmic growth phase were used for experiments.
(§2) Cell Proliferation Inhibition Assay: The antiproliferative activity of the compounds against LN18 MTAP(-/-) cells was assessed using the CellTiter-Glo assay kit. Cell suspensions were adjusted to the appropriate density and seeded into 384-well plates at a volume of 40 µL per well, then incubated overnight at 37°C with 5% CO2. Compounds (40 nL) were added to each well to achieve final concentrations ranging from 0 to 1,000 nM (starting concentration 1,000 nM, 3-fold serial dilutions, 9 dose points), with a final DMSO concentration of […]. The cell plates were incubated at 37°C with 5% CO2 for 7 days. Subsequently, 40 µL of CellTiter-Glo reagent was added to measure cell viability.

[1] = test system: LN18 MTAP-overexpressing cells; test: Inhibition of proliferation of LN18 MTAP-overexpressing cells (CellTiter-Glo); conditions: Homo sapiens, LN-18, 168 h, cell proliferation, 7 days
Source text: Test 6: Assay for Inhibitory Activity of Compounds against LN18 MTAP-Overexpressing Cell Proliferatio
as §1, with “MTAP-overexpressing” for “MTAP(-/-)”, “purchased from” for “provided by”
Cell Culture: LN18 MTAP-overexpressing cells were cultured in a medium supplemented with 10% fetal bovine serum (FBS) and 1% penicillin-streptomycin at 37°C with 5% CO2. Only cells in the logarithmic growth phase were used for experiments.
as §2, with “MTAP-overexpressing” for “MTAP(-/-)”, “10,000” for “1,000”

U87MG MTAP(-/-) cells = test: Inhibition of proliferation of U87MG MTAP(-/-) cells (CellTiter-Glo); conditions: Homo sapiens, U-87 MG, 144 h, cell proliferation, 6 days
Experimental: Test 7: Assay for Inhibitory Activity of Compounds against U87MG MTAP(-/-) Cell Proliferation
as §1, with “U87MG” for “LN18”, “purchased from ATCC (USA).” for “provided by Cobioer Biosciences (China).”
Cell Culture: U87MG MTAP(-/-) cells were cultured in a medium supplemented with 10% fetal bovine serum (FBS) and 1% penicillin-streptomycin at 37°C with 5% CO2. Only cells in the logarithmic growth phase were used for experiments.
Cell Proliferation Inhibition Assay: The antiproliferative activity of the compounds against U87MG MTAP(-/-) cells was assessed using the CellTiter-Glo assay kit. Cell suspensions were adjusted to the appropriate density and seeded into 384-well plates at a volume of 40 µL per well, then incubated overnight at 37°C with 5% CO2. Compounds (40 nL) were added to each well to achieve final concentrations ranging from 0 to 10,000 nM (starting concentration 10,000 nM, 3-fold serial dilutions, 10 dose points), with a final DMSO concentration of […]. The cell plates were incubated at 37°C with 5% CO2 for 6 days. Subsequently, 40 µL of CellTiter-Glo reagent was added to measure cell viability. Paclitaxel was used as a control compound.

U87MG = test: Mini cell panel: inhibition of proliferation of U87MG cells; conditions: Homo sapiens, U-87 MG, MTAP (-/-)
Source text: (§3) Test 9: Mini Cell Panel: Assay for Inhibitory Activity of Compounds against Proliferation of 20 Tumor Cell Lines
(§4) Materials and Cells: Fifteen MTAP(-/-) cell lines and five MTAP wild-type cell lines were purchased from ATCC (USA). Cell culture media, fetal bovine serum (FBS), and penicillin-streptomycin were purchased from Thermo Fisher Scientific (USA). 384-well plates were purchased from PerkinElmer (USA). The CellTiter-Glo assay kit was purchased from Promega (USA). Paclitaxel was used as the control compound.

SW1573 = test: Mini cell panel: inhibition of proliferation of SW1573 cells; conditions: Homo sapiens, SW1573, MTAP (-/-)
Source text: as §3, §4

DOHH-2 = test: Mini cell panel: inhibition of proliferation of DOHH-2 cells; conditions: Homo sapiens, DOHH-2, MTAP (-/-)
Source text: as §3, §4

ACHN = test: Mini cell panel: inhibition of proliferation of ACHN cells; conditions: Homo sapiens, ACHN, MTAP (-/-)
Source text: as §3, §4

SW780 = test: Mini cell panel: inhibition of proliferation of SW780 cells; conditions: Homo sapiens, SW780, MTAP (-/-)
Source text: as §3, §4

MKN-45 = test: Mini cell panel: inhibition of proliferation of MKN-45 cells; conditions: Homo sapiens, MKN-45, MTAP (-/-)
Source text: as §3, §4

Aspc-1 = test: Mini cell panel: inhibition of proliferation of Aspc-1 cells; conditions: Homo sapiens, ASPC1, MTAP Wild type
Source text: as §3, §4

Calu-1 = test: Mini cell panel: inhibition of proliferation of Calu-1 cells; conditions: Homo sapiens, Calu-1, MTAP Wild type
Source text: as §3, §4

MDA-MB-231 = test: Mini cell panel: inhibition of proliferation of MDA-MB-231 cells; conditions: Homo sapiens, MDA-MB-231, MTAP (-/-)
Source text: as §3, §4

SU-DHL-10 = test: Mini cell panel: inhibition of proliferation of SU-DHL-10 cells; conditions: Homo sapiens, SU-DHL10, MTAP Wild type
Source text: as §3, §4

NCI-H647 = test: Mini cell panel: inhibition of proliferation of NCI-H647 cells; conditions: Homo sapiens, NCI-H647, MTAP (-/-)
Source text: as §3, §4

BxPc-3 = test: Mini cell panel: inhibition of proliferation of BxPc-3 cells; conditions: Homo sapiens, BXPC-3, MTAP (-/-)
Source text: as §3, §4

CFPAC-1 = test: Mini cell panel: inhibition of proliferation of CFPAC-1 cells; conditions: Homo sapiens, CFPAC-1, MTAP Wild type
Source text: as §3, §4

LU99 = test: Mini cell panel: inhibition of proliferation of LU99 cells; conditions: Homo sapiens, Lu-99, MTAP (-/-)
Source text: as §3, §4

SU-DHL-4 = test: Mini cell panel: inhibition of proliferation of SU-DHL-4 cells; conditions: Homo sapiens, SU-DHL-4, MTAP Wild type
Source text: as §3, §4

A549 = test: Mini cell panel: inhibition of proliferation of A549 cells; conditions: Homo sapiens, A549, MTAP (-/-)
Source text: as §3, §4

PSN-1 = test: Mini cell panel: inhibition of proliferation of PSN-1 cells; conditions: Homo sapiens, PSN1, MTAP (-/-)
Source text: as §3, §4

SK-MEL-5 = test: Mini cell panel: inhibition of proliferation of SK-MEL-5 cells; conditions: Homo sapiens, MTAP (-/-)
Source text: as §3, §4

LN-18 = test: Mini cell panel: inhibition of proliferation of LN-18 cells; conditions: Homo sapiens, LN-18, MTAP (-/-)
Source text: as §3, §4

Q: What does the source list for `CN(C(=O)c1cc2c(cc1C#N)nc(N)c1cncn12)[C@@H]1COc2cc(C(F)(F)F)ccc21` [Example 14, (S)-4-amino-7-cyano-N-methyl-N-(6-(trifluoromethyl)-2,3-dihydrobenzofuran-3-yl)imi dazo[1,5-a]quinoxaline-8-carboxamide]?
A: IC50 (LN18 MTAP(-/-) cells): 5.56 nM; IC50 [1]: 898 nM; IC50 (U87MG MTAP(-/-) cells): 79.5 nM

Q: For `CC(=O)O[C@H]1C(=O)[C@@]2(C)[C@H]([C@H](OC(=O)c3ccccc3)[C@]3(O)C[C@H](OC(=O)[C@H](O)[C@@H](NC(=O)c4ccccc4)c4ccccc4)C(C)=C1C3(C)C)[C@]1(OC(C)=O)CO[C@@H]1C[C@@H]2O` [Paclitaxel, reference compound], which IC50 (U87MG) is on record?
A: Its IC50 is 5.2 nM.

Q: What about the IC50 (SW1573) of the same molecule?
A: Its IC50 is 2.5 nM.

Q: What about the IC50 (DOHH-2) of the same molecule?
A: Its IC50 is 3.4 nM.

Q: What about the IC50 (ACHN) of the same molecule?
A: The IC50 was 4.1 nM.

Q: And the IC50 (SW780)?
A: Its IC50 is 1.6 nM.

Q: What about the IC50 (MKN-45) of the same molecule?
A: Its IC50 is 1.8 nM.

Q: What about the IC50 (Aspc-1) of the same molecule?
A: Its IC50 is 3.4 nM.

Q: What about the IC50 (Calu-1) of the same molecule?
A: The IC50 was 9.8 nM.

Q: And the IC50 (MDA-MB-231)?
A: Its IC50 is 2.5 nM.

Q: What about the IC50 (SU-DHL-10) of the same molecule?
A: Its IC50 is 2.8 nM.

Q: And the IC50 (NCI-H647)?
A: Its IC50 is 1.4 nM.

Q: What about the IC50 (BxPc-3) of the same molecule?
A: Its IC50 is 0.9 nM.

Q: And the IC50 (CFPAC-1)?
A: Its IC50 is 1.1 nM.

Q: And the IC50 (LU99)?
A: The IC50 was 1.5 nM.

Q: What about the IC50 (SU-DHL-4) of the same molecule?
A: Its IC50 is 1.9 nM.

Q: And the IC50 (A549)?
A: Its IC50 is 1.9 nM.

Q: And the IC50 (PSN-1)?
A: Its IC50 is 2.9 nM.

Q: And the IC50 (U87MG MTAP(-/-) cells)?
A: The IC50 was 5.55 nM.

Q: What about the IC50 (SK-MEL-5) of the same molecule?
A: Its IC50 is 7.8 nM.

Q: What about the IC50 (LN-18) of the same molecule?
A: The IC50 was 20.6 nM.
